Values after ≈ are worked out from the molar mass of the structure shown.
Experiments:
[1] = system: Human immunodeficiency virus 1; assay: Antiviral activity against Human immunodeficiency virus 1 IIIB infected MT4 cells assessed as inhibition of virus-induced cytopathogenicity after 5 days by MTT assay; format: functional, organism-based; conditions: MT4, 120 h
[2] = Cytotoxicity against Homo sapiens (human) MT4 cells after 5 days by MTT assay; format: cell-based
[3] = system: Human immunodeficiency virus 2; assay: Antiviral activity against Human immunodeficiency virus type 2 (ISOLATE ROD) infected MT4 cells assessed as inhibition of virus-induced cytopathogenicity after 5 days by MTT assay; format: functional, organism-based; conditions: Human immunodeficiency virus 2, ISOLATE ROD, MT4, 120 h
[4] = Selectivity index, ratio of CC50 for human MT4 cells to IC50 for HIV1 3B; format: functional
[5] = Selectivity index, ratio of CC50 for human MT4 cells to IC50 for HIV2 ROD; format: functional
[6] = system: Aspergillus clavatus; assay: Antifungal activity against Aspergillus clavatus MTCC 323 after overnight incubation by broth microdilution method; format: functional
[7] = system: Aspergillus niger; assay: Antifungal activity against Aspergillus niger MTCC 282 after overnight incubation by broth microdilution method; format: functional
[8] = system: Streptococcus pyogenes; assay: Antibacterial activity against Streptococcus pyogenes MTCC 443 after overnight incubation by broth microdilution method; format: functional
[9] = system: Escherichia coli; assay: Antibacterial activity against Escherichia coli MTCC 442 after overnight incubation by broth microdilution method; format: functional
[10] = system: Mycobacterium tuberculosis; assay: Growth inhibition of Mycobacterium tuberculosis H37Rv at MIC after 28 days by Lowenstein-Jensen agar method; format: functional
[11] = system: Mycobacterium tuberculosis; assay: Antitubercular activity against Mycobacterium tuberculosis H37Rv after 28 days by Lowenstein-Jensen agar method; format: functional; conditions: 672 h
[12] = system: Staphylococcus aureus; assay: Antibacterial activity against Staphylococcus aureus MTCC 96 after overnight incubation by broth microdilution method; format: functional
[13] = system: Pseudomonas aeruginosa; assay: Antibacterial activity against Pseudomonas aeruginosa MTCC 2488 after overnight incubation by broth microdilution method; format: functional
[14] = system: Candida albicans; assay: Antifungal activity against Candida albicans MTCC 227 after overnight incubation by broth microdilution method; format: functional

Row | Structure (SMILES) | IC50 [1] | CC50 at 120 h [2] | IC50 [3] | Ratio CC50/IC50 [4] | Ratio CC50/IC50 [5] | MIC99 [6] | MIC99 [7] | MIC99 [8] | MIC99 [9] | growth inhibition (GI) [10] | MIC [11] | MIC99 [12] | MIC99 [13] | MIC99 [14]
1 | NNc1nc2ccc(F)cc2s1 | > 13.8 µg/mL | 13.8 µg/mL (≈ 75.2 µM) | > 13.8 µg/mL | <1 | <1 | – | – | – | – | – | – | – | – | –
2 | NNc1nc2ccc(Br)cc2s1 | > 8.01 µg/mL | 8.01 µg/mL (≈ 32.8 µM) | > 8.01 µg/mL | <1 | <1 | – | – | – | – | – | – | – | – | –
3 | NNc1nc2ccc([N+](=O)[O-])cc2s1 | > 12.8 µg/mL | 12.8 µg/mL (≈ 60.9 µM) | > 12.8 µg/mL | <1 | <1 | – | – | – | – | – | – | – | – | –
4 | Cc1ccc2nc(NN)sc2c1 | > 4.52 µg/mL | 4.52 µg/mL (≈ 25.2 µM) | > 4.52 µg/mL | <1 | <1 | – | – | – | – | – | – | – | – | –
5 | COc1ccc2nc(NN)sc2c1 | > 14.8 µg/mL | 14.8 µg/mL (≈ 75.7 µM) | > 14.8 µg/mL | <1 | <1 | – | – | – | – | – | – | – | – | –
6 | NNc1nc2ccc(Cl)cc2s1 | > 2.48 µg/mL | 2.48 µg/mL (≈ 12.4 µM) | > 2.48 µg/mL | <1 | <1 | – | – | – | – | – | – | – | – | –
7 | Cc1cccc2sc(NN)nc12 | > 9.8 µg/mL | 9.8 µg/mL (≈ 54.7 µM) | > 9.8 µg/mL | <1 | <1 | – | – | – | – | – | – | – | – | –
8 | NNc1nc2c([N+](=O)[O-])cccc2s1 | > 14.5 µg/mL | 14.5 µg/mL (≈ 68.9 µM) | > 14.5 µg/mL | <1 | <1 | – | – | – | – | – | – | – | – | –
9 | NNc1nc2cc(Cl)c(Cl)cc2s1 | > 80 µg/mL | 80 µg/mL (≈ 342 µM) | > 80 µg/mL | <1 | <1 | – | – | – | – | – | – | – | – | –
10 | NNc1nc2c(Cl)cccc2s1 | > 117 µg/mL | 117 µg/mL (≈ 586 µM) | > 117 µg/mL | 1 | 1 | – | – | – | – | – | – | – | – | –
11 | O=[N+]([O-])c1ccc(-c2nnc(-c3cccnc3)n2Nc2nc3ccc(F)cc3s2)cc1 | > 108 µg/mL | ≥ 108 µg/mL | > 108 µg/mL | 1 | 1 | – | – | – | – | – | – | – | – | –
12 | O=[N+]([O-])c1ccc(-c2nnc(-c3cccnc3)n2Nc2nc3ccc(Br)cc3s2)cc1 | > 13.2 µg/mL | 13.2 µg/mL (≈ 26.7 µM) | > 13.2 µg/mL | <1 | <1 | – | – | – | – | – | – | – | – | –
13 | O=[N+]([O-])c1ccc(-c2nnc(-c3cccnc3)n2Nc2nc3ccc([N+](=O)[O-])cc3s2)cc1 | > 50.8 µg/mL | 50.8 µg/mL (≈ 110 µM) | > 50.8 µg/mL | <1 | <1 | – | – | – | – | – | – | – | – | –
14 | Cc1ccc2nc(Nn3c(-c4ccc([N+](=O)[O-])cc4)nnc3-c3cccnc3)sc2c1 | > 64.4 µg/mL | 64.4 µg/mL (≈ 150 µM) | > 64.4 µg/mL | <1 | <1 | – | – | – | – | – | – | – | – | –
15 | COc1ccc2nc(Nn3c(-c4ccc([N+](=O)[O-])cc4)nnc3-c3cccnc3)sc2c1 | > 12.9 µg/mL | 12.9 µg/mL (≈ 29 µM) | > 12.9 µg/mL | <1 | <1 | – | – | – | – | – | – | – | – | –
16 | O=[N+]([O-])c1ccc(-c2nnc(-c3cccnc3)n2Nc2nc3ccc(Cl)cc3s2)cc1 | > 53.7 µg/mL | 53.7 µg/mL (≈ 119 µM) | > 53.7 µg/mL | <1 | <1 | – | – | – | – | – | – | – | – | –

Row | Structure (SMILES) | IC50 [1] | CC50 at 120 h [2] | IC50 [3] | Ratio CC50/IC50 [4] | Ratio CC50/IC50 [5] | MIC99 [6] | MIC99 [7] | MIC99 [8] | MIC99 [9] | growth inhibition (GI) [10] | MIC [11] | MIC99 [12] | MIC99 [13] | MIC99 [14]
17 | Cc1cccc2sc(Nn3c(-c4ccc([N+](=O)[O-])cc4)nnc3-c3cccnc3)nc12 | > 13.5 µg/mL | 13.5 µg/mL (≈ 31.4 µM) | > 13.5 µg/mL | <1 | <1 | – | – | – | – | – | – | – | – | –
18 | O=[N+]([O-])c1ccc(-c2nnc(-c3cccnc3)n2Nc2nc3c([N+](=O)[O-])cccc3s2)cc1 | > 13.8 µg/mL | 13.8 µg/mL (≈ 29.9 µM) | > 13.8 µg/mL | <1 | <1 | – | – | – | – | – | – | – | – | –
19 | O=[N+]([O-])c1ccc(-c2nnc(-c3cccnc3)n2Nc2nc3cc(Cl)c(Cl)cc3s2)cc1 | > 68.6 µg/mL | 68.7 µg/mL (≈ 142 µM) | > 68.6 µg/mL | <1 | <1 | – | – | – | – | – | – | – | – | –
20 | O=[N+]([O-])c1ccc(-c2nnc(-c3cccnc3)n2Nc2nc3c(Cl)cccc3s2)cc1 | > 15.5 µg/mL | 15.6 µg/mL (≈ 34.6 µM) | > 15.5 µg/mL | <1 | <1 | – | – | – | – | – | – | – | – | –
21 | O=[N+]([O-])c1cccc2sc(Nn3c(-c4ccc(Cl)cc4)nnc3-c3cccnc3)nc12 | > 21.3 µg/mL | 21.3 µg/mL (≈ 47.4 µM) | > 21.3 µg/mL | <1 | <1 | 500 µg/mL (≈ 1110 µM) | 500 µg/mL (≈ 1110 µM) | 250 µg/mL (≈ 556 µM) | 100 µg/mL (≈ 222 µM) | 97% | 500 µg/mL (≈ 1110 µM) | 200 µg/mL (≈ 445 µM) | 125 µg/mL (≈ 278 µM) | 100 µg/mL (≈ 222 µM)
22 | Clc1ccc(-c2nnc(-c3cccnc3)n2Nc2nc3cc(Cl)c(Cl)cc3s2)cc1 | > 52.1 µg/mL | 52.1 µg/mL (≈ 110 µM) | > 52.1 µg/mL | <1 | <1 | 1000 µg/mL (≈ 2110 µM) | 250 µg/mL (≈ 528 µM) | 500 µg/mL (≈ 1060 µM) | 500 µg/mL (≈ 1060 µM) | 98% | 250 µg/mL (≈ 528 µM) | 500 µg/mL (≈ 1060 µM) | 250 µg/mL (≈ 528 µM) | 250 µg/mL (≈ 528 µM)
23 | Clc1ccc(-c2nnc(-c3cccnc3)n2Nc2nc3c(Cl)cccc3s2)cc1 | > 27.2 µg/mL | 27.2 µg/mL (≈ 61.8 µM) | > 27.2 µg/mL | <1 | <1 | 500 µg/mL (≈ 1140 µM) | 500 µg/mL (≈ 1140 µM) | 500 µg/mL (≈ 1140 µM) | 100 µg/mL (≈ 228 µM) | 98% | 12.5 µg/mL (≈ 28.5 µM) | 250 µg/mL (≈ 569 µM) | 62.5 µg/mL (≈ 142 µM) | 200 µg/mL (≈ 455 µM)
24 | O=[N+]([O-])c1ccc(-c2nnc(-c3cccnc3)o2)cc1 | > 73.5 µg/mL | 73.5 µg/mL (≈ 274 µM) | > 73.5 µg/mL | <1 | <1 | – | – | – | – | – | – | – | – | –
25 | CC1(C)S[C@@H]2[C@H](NC(=O)[C@H](N)c3ccccc3)C(=O)N2[C@H]1C(=O)O [AMPICILLIN] | – | – | – | – | – | – | – | 100 µg/mL (≈ 286 µM) | 100 µg/mL (≈ 286 µM) | – | – | 250 µg/mL (≈ 715 µM) | 100 µg/mL (≈ 286 µM) | –
26 | Clc1ccccc1C(c1ccccc1)(c1ccccc1)n1ccnc1 [CLOTRIMAZOLE] | – | – | – | – | – | – | – | – | – | 96% | 20.4 µg/mL (≈ 59.2 µM) | – | – | –
27 | Clc1ccc(COC(Cn2ccnc2)c2ccc(Cl)cc2Cl)cc1 (stereo not given) [ECONAZOLE] | – | – | – | – | – | – | – | – | – | 99% | 12.5 µg/mL (≈ 32.7 µM) | – | – | –
28 | COC1=CC(=O)C[C@@H](C)[C@]12Oc1c(Cl)c(OC)cc(OC)c1C2=O [GRISEOFULVIN] | – | – | – | – | – | 100 µg/mL (≈ 283 µM) | 100 µg/mL (≈ 283 µM) | – | – | – | – | – | – | 500 µg/mL (≈ 1420 µM)
29 | NNC(=O)c1ccncc1 [ISONIAZID] | – | – | – | – | – | – | – | – | – | 99% | 0.2 µg/mL (≈ 1.46 µM) | – | – | –
30 | Cc1ccnc2c1NC(=O)c1cccnc1N2C1CC1 [NEVIRAPINE] | > 0.05 µg/mL | > 4 µg/mL | – | >80 | – | – | – | – | – | – | – | – | – | –
31 | CO[C@H]1/C=C/O[C@@]2(C)Oc3c(C)c(O)c4c(O)c(c(/C=N/N5CCN(C)CC5)c(O)c4c3C2=O)NC(=O)/C(C)=C\C=C\[C@H](C)[C@H](O)[C@@H](C)[C@@H](O)[C@@H](C)[C@H](OC(C)=O)[C@@H]1C [RIFAMPIN] | – | – | – | – | – | – | – | – | – | 99% | 40 µg/mL (≈ 48.6 µM) | – | – | –

— ChEMBL document CHEMBL3046062, “Anti-HIV, antimycobacterial and antimicrobial studies of newly synthesized 1,2,4-triazole clubbed benzothiazoles” (Med Chem Res, 2013)
